Among the data in US20080293696A1, “2-Aminoarylcarboxamides Useful as Cancer Chemotherapeutic Agents” (Bayer Pharmaceuticals Corporation, priority 2004, published 2008) are IC50 values, retold here.

Structures are written as SMILES. Some results are limits rather than exact numbers.

One assay concerns PAKT/PKB (p-(S473) AKT) in H209 small cell lung carcinoma cells stimulated with Stem Cell Factor. Briefly: PAKT/PKB Cytoblot Assay with H209 cells (SCF-stimulated p-(S473) AKT). Format: cell-based. The settings on record: Homo sapiens, NCI-H209, compound 1 hour, SCF 25 ng/mL 5 minutes, group: between 500 nM and 1 μM (units in value). An outline of the steps:
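H209 SCLC cells kept overnight in RPMI with 0.1% BSA were pretreated 1 h at 37 °C with compound (0.01–10 μM final), then stimulated with SCF 25 ng/mL for 5 min. After formaldehyde/methanol fixation, p-(S473) AKT was detected in-cell with HRP secondary and ECL chemiluminescence, and IC50 was derived.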
The term IC50 denotes the concentration that gives 50% inhibition. Low readings indicate higher potency, high ones lower potency. Regarding `CCN(CC)CCCC(C)NC(=O)c1cc(CNc2ccccc2C(=O)Nc2ccc3c(c2)OC(F)(F)O3)ccn1` (stereo not drawn) [Example 108, N-[4-(diethylamino)-1-methylbutyl]-4-{[(2-{[(2,2-difluoro-1,3-benzodioxol-5-yl)amino]carbonyl}phenyl)amino]methyl}pyridine-2-carboxamide], the half-maximal inhibitory concentration (IC50) fell in the range of 500 to 1000 nM.

In turn, `COCCOCC(=O)Nc1cc(CNc2ccccc2C(=O)Nc2ccc3c(c2)OC(F)(F)O3)ccn1` [Example 154, N-(2,2-difluoro-1,3-benzodioxol-5-yl)-2-{[(2{[(2-methoxyethoxy)acetyl]amino}pyridin-4-yl)methyl]amino}benzamide] yielded an IC50 of 500 to 1000 nM.

As to `O=C(NCc1ccccc1)Nc1cc(CNc2ccccc2C(=O)Nc2ccc3c(c2)OC(F)(F)O3)ccn1` [Example 172, 2-{[(2-{[(benzylamino)carbonyl]amino}pyridin-4-yl)methyl]amino]-N-(2,2-difluoro-1,3-benzodioxol-5-yl)benzamide], the IC50 was in the range of 500 to 1000 nM.

`O=C(NCCCN1CCCCC1)c1cc(CNc2ccccc2C(=O)Nc2ccc3c(c2)OC(F)(F)O3)ccn1` [Example 98, 4-{[(2-{[(2,2-difluoro-1,3-benzodioxol-5-yl)amino]carbonyl}phenyl)amino]methyl}-N-(3-piperidin-1-ylpropyl)pyridine-2-carboxamide] yielded an IC50 of 500 to 1000 nM.

Compound `CCCCN(CCCC)CCCNC(=O)c1cc(CNc2ccccc2C(=O)Nc2ccc3c(c2)OC(F)(F)O3)ccn1` [Example 105, N-[3-(dibutylamino)propyl]-4-{[(2-{[(2,2-difluoro-1,3-benzodioxol-5-yl)amino]carbonyl}phenyl)amino]methyl}pyridine-2-carboxamide] showed an IC50 of 500 to 1000 nM.

`O=C(Nc1ccc2c(c1)OC(F)(F)O2)c1ccccc1NCc1ccnc(CO)c1` [Example 177, N-(2,2-difluoro-1,3-benzodioxol-5-yl)-2-({[2-(hydroxymethyl)pyridin-4-yl]methyl}amino)benzamide]: the IC50 lay in the range of 500 to 1000 nM.

The assay is the same for the next values; noted with them: Homo sapiens, NCI-H209, compound 1 hour, SCF 25 ng/mL 5 minutes, group: between 1 and 3 μM.
With `COc1cccc(NC(=O)Nc2cc(CNc3ccccc3C(=O)Nc3ccc4c(c3)OC(F)(F)O4)ccn2)c1` [Example 167, N-(2,2-difluoro-1,3-benzodioxol-5-yl)-2-({[2-({[(3-methoxyphenyl)amino]carbonyl}amino)pyridin-4-yl]methyl}amino)benzamide], the IC50 was in the range of 1000 to 3000 nM.

In the case of `CN(C)CC(C)(C)CNC(=O)c1cc(CNc2ccccc2C(=O)Nc2ccc3c(c2)OC(F)(F)O3)ccn1` [Example 121, 4-{[(2-{[(2,2-difluoro-1,3-benzodioxol-5-yl)amino]carbonyl}phenyl)amino]methyl}-N-[3-(dimethylamino)-2,2-dimethylpropyl]pyridine-2-carboxamide], the IC50 was in the range of 1000 to 3000 nM.

The compound `CC(CN(C)C)NC(=O)c1cc(CNc2ccccc2C(=O)Nc2ccc3c(c2)OC(F)(F)O3)ccn1` (stereo not drawn) [Example 116, 4-{[(2-{[(2,2-difluoro-1,3-benzodioxol-5-yl)amino]carbonyl}phenyl)amino]methyl}-N-[2-(dimethylamino)-1-methylethyl]pyridine-2-carboxamide] came in with an IC50 of 1000 to 3000 nM.

For the compound `O=C(O)CCNC(=O)c1cc(CNc2ccccc2C(=O)Nc2ccc3c(c2)OC(F)(F)O3)ccn1` [Example 99, N-[(4-{[(2-{[(2,2-difluoro-1,3-benzodioxol-5-yl)amino]carbonyl}phenyl)amino]methyl}pyridin-2-yl)carbonyl]beta-alanine], the IC50 lay in the range of 1000 to 3000 nM.

`O=C(NCCc1c[nH]c2ccccc12)c1cc(CNc2ccccc2C(=O)Nc2ccc3c(c2)OC(F)(F)O3)ccn1` [Example 102, 4-{[(2-{[(2,2-difluoro-1,3-benzodioxol-5-yl)amino]carbonyl}phenyl)amino]methyl}-N-[2-(1H-indol-3-yl)ethyl]pyridine-2-carboxamide] came in with an IC50 of 1000 to 3000 nM.

Staying with this assay, now noted: Homo sapiens, NCI-H209, compound 1 hour, SCF 25 ng/mL 5 minutes, group: less than 500 nM.
Compound `O=C(NCc1ccncc1)c1cc(CNc2ccccc2C(=O)Nc2ccc3c(c2)OC(F)(F)O3)ccn1` [Example 104, 4-{[(2-{[(2,2-difluoro-1,3-benzodioxol-5-yl)amino]carbonyl}phenyl)amino]methyl}-N-(pyridin-4-ylmethyl)pyridine-2-carboxamide] registered an IC50 below 500 nM.

Compound `O=C(NCC(O)CO)c1cc(CNc2ccccc2C(=O)Nc2ccc3c(c2)OC(F)(F)O3)ccn1` (stereo not drawn) [Example 79, 4-{[(2-{[(2,2-Difluoro-1,3-benzodioxol-5-yl)amino]carbonyl}phenyl)amino]methyl}-N-(2,3-dihydroxypropyl)pyridine-2-carboxamide] displayed an IC50 below 500 nM.

As for `CCNC(=O)c1cc(CNc2ccc(F)cc2C(=O)Nc2ccc3c(c2)OC(F)(F)O3)ccn1` [Example 46, 4-{[(2-{[(2,2-difluoro-1,3-benzodioxol-5-yl)amino]carbonyl}-4-fluorophenyl)amino]methyl}-N-ethylpyridine-2-carboxamide], the IC50 was below 500 nM.

The compound `CCOCCCNC(=O)c1cc(CNc2ccccc2C(=O)Nc2ccc3c(c2)OC(F)(F)O3)ccn1` [Example 110, 4-{[(2-{[(2,2-difluoro-1,3-benzodioxol-5-yl)amino]carbonyl}phenyl)amino]methyl}-N-(3-ethoxypropyl)pyridine-2-carboxamide] came in with an IC50 below 500 nM.

The compound `O=C(NCCO)c1cc(CNc2ccccc2C(=O)Nc2ccc3c(c2)OC(F)(F)O3)ccn1` [Example 91, 4-{[(2-{[(2,2-difluoro-1,3-benzodioxol-5-yl)amino]carbonyl}phenyl)amino]methyl}-N-(2-hydroxyethyl)pyridine-2-carboxamide] gave a half-maximal inhibitory concentration (IC50) below 500 nM.

In the case of `COC(=O)COCC(=O)Nc1cc(CNc2ccccc2C(=O)Nc2ccc3c(c2)OC(F)(F)O3)ccn1` [Example 157], the IC50 was below 500 nM.

`O=C(NCc1ccc(N2CCOCC2)cc1)c1cc(CNc2ccccc2C(=O)Nc2ccc3c(c2)OC(F)(F)O3)ccn1` [Example 133, 4-{[(2-{[(2,2-difluoro-1,3-benzodioxol-5-yl)amino]carbonyl}phenyl)amino]methyl}-N-(4-morpholin-4-ylbenzyl)pyridine-2-carboxamide] showed an IC50 below 500 nM.

As for `CNc1nccc(CNc2ccccc2C(=O)Nc2ccc3c(c2)OC(F)(F)O3)n1` [Example 49, N-(2,2-difluoro-1,3-benzodioxol-5-yl)-2-({[2-(methylamino)pyrimidin-4-yl]methyl}amino)benzamide], the IC50 was below 500 nM.

`O=C(Nc1ccc2c(c1)OC(F)(F)O2)c1cc(F)ccc1NCc1ccncc1` [Example 20, N-(2,2-difluoro-1,3-benzodioxol-5-yl)-5-fluoro-2-[(pyridin-4-ylmethyl)amino]benzamide]: the IC50 is below 500 nM.

As to `N#Cc1cc(CNc2ccccc2C(=O)Nc2ccc3c(c2)C(F)(F)OC(F)(F)O3)ccn1` [Example 23, 2-{[(2-cyanopyridin-4-yl)methyl]amino}-N-(2,2,4,4-tetrafluoro-4H-1,3-benzodioxin-6-yl)benzamide], the IC50 was below 500 nM.

In turn, `CNC(=O)Nc1cc(CNc2ccccc2C(=O)Nc2ccc3c(c2)OC(F)(F)O3)ccn1` [Example 165, N-(2,2-difluoro-1,3-benzodioxol-5-yl)-2-{[(2-{[(methylamino)carbonyl]amino}pyridin-4-yl)methyl]amino}benzamide] displayed an IC50 below 500 nM.

`O=C(NCCOCCO)c1cc(CNc2ccccc2C(=O)Nc2ccc3c(c2)OC(F)(F)O3)ccn1` [Example 103, 4-{[(2-{[(2,2-difluoro-1,3-benzodioxol-5-yl)amino]carbonyl}phenyl)amino]methyl}-N-[2-(2-hydroxyethoxy)ethyl]pyridine-2carboxamide] displayed an IC50 below 500 nM.

Take `N#Cc1cc(CNc2ccccc2C(=O)Nc2ccc3c(c2)OC(F)(F)C(F)(F)O3)ccn1` [Example 22, 2-{[(2-cyanopyridin-4-yl)methyl]amino}-N-(2,2,3,3-tetrafluoro-2,3-dihydro-1,4-benzodioxin-6-yl)benzamide]: the IC50 was below 500 nM.

Turning to `CCCOCCNC(=O)c1cc(CNc2ccccc2C(=O)Nc2ccc3c(c2)OC(F)(F)O3)ccn1` [Example 114, 4-{[(2-{[(2,2-difluoro-1,3-benzodioxol-5-yl)amino]carbonyl}phenyl)amino]methyl}-N-(2-propoxyethyl)pyridine-2-carboxamide], the concentration for half-maximal inhibition (IC50) was below 500 nM.

As to `CNC(=O)c1cc(CNc2ccccc2C(=O)Nc2ccc3c(c2)C(F)(F)OC(F)(F)O3)ccn1` [Example 4, N-methyl-4-{[(2-{[(2,2,4,4-tetrafluoro-4H-1,3-benzodioxin-6-yl)amino]carbonyl}phenyl)amino]methyl}pyridine-2-carboxamide], the IC50 was below 500 nM.

The compound `CN1CCCC1CCNC(=O)c1cc(CNc2ccccc2C(=O)Nc2ccc3c(c2)OC(F)(F)O3)ccn1` (stereo not drawn) [Example 117, 4-{[(2-{[(2,2-difluoro-1,3-benzodioxol-5-yl)amino]carbonyl}phenyl)amino]methyl}-N-[2-(1-methylpyrrolidin-2-yl)ethyl]pyridine-2-carboxamide] registered an IC50 below 500 nM.

`CN(C)C(=O)Nc1cc(CNc2ccccc2C(=O)Nc2ccc3c(c2)OC(F)(F)O3)ccn1` [Example 174, N-(2,2-difluoro-1,3-benzodioxol-5-yl)-2-{[(2-{[(dimethylamino)carbonyl]amino}pyridin-4-yl)methyl]amino}benzamide] displayed an IC50 below 500 nM.

In turn, `NC(=O)c1cc(CNc2ccccc2C(=O)Nc2ccc3c(c2)OC(F)(F)O3)ccn1` [Example 75, 4-{[(2-{[(2,2-Difluoro-1,3-benzodioxol-5-yl)amino]carbonyl}phenyl)amino]methyl}pyridine-2-carboxamide] yielded a half-inhibitory concentration (IC50) below 500 nM.

For the compound `O=C(NCCCN1CCCC1)c1cc(CNc2ccccc2C(=O)Nc2ccc3c(c2)OC(F)(F)O3)ccn1` [Example 92, 4-{[(2-{[(2,2-difluoro-1,3-benzodioxol-5-yl)amino]carbonyl}phenyl)amino]methyl}-N-(3-pyrrolidin-1-ylpropyl)pyridine-2-carboxamide], the IC50 is below 500 nM.
